The structures appear in SMILES notation. The source made the active and inactive calls. No cut-off for these calls is given here.

Results on two molecules are retold here after ChEMBL document CHEMBL1154582, “Thonningianins A and B, new antioxidants from the African medicinal herb Thonningia sanguinea” (J Nat Prod, 2000).

What all share (format): functional
Experiment [1] in a line: DPPH radical scavenging activity by ESR spectra.
Experiment [2] in a line: DPPH radical scavenging activity at 25 uM by ESR spectra.
Experiment [3] is described as follows: DPPH radical scavenging activity at 34.5 uM by ESR spectra.

In turn, `O=C(O[C@@H]1[C@@H](O)[C@H](Oc2cc(O)c(C(=O)CCc3ccccc3)c(O)c2)O[C@@H]2COC(=O)c3cc(O)c(O)c(O)c3-c3c(cc(O)c(O)c3O)C(=O)O[C@@H]12)c1cc(O)c(O)c(O)c1` [THONNINGIANIN A] displayed an IC50 in experiment [1] of 8 µM. For the same molecule, the outcome in experiment [2] was Active.

In experiment [1], `O=C1OC[C@H]2O[C@@H](Oc3cc(O)c(C(=O)CCc4ccccc4)c(O)c3)[C@H](O)[C@@H](O)[C@@H]2OC(=O)c2cc(O)c(O)c(O)c2-c2c1cc(O)c(O)c2O` [THONNINGIANIN B] registered an IC50 of 21 µM. In experiment [3], this molecule gave an Activity of 90%.
